These results are taken from the NIST ThermoML archive (doi:10.1021/je900366m).

Numbers after ± are expanded uncertainties.

The nature of series [1]: refractive index (Na D-line) (dimensionless). Conditions: 293.1 K; 101.33 kPa; Liquid; Standard Abbe refractometry.
The conditions of series [2]: 298.15 K; 101.33 kPa; Liquid; Pycnometric method.

For the compound `C1COCCO1` [1,4-dioxane], the refractive index (usually a measure of how strongly the sample bends light) in series [1] was determined as 1.422 ± 0.0004. In series [2], the mass density (in general, mass per unit of volume) is reported as 1025.9 ± 0.4 kg/m3.
For `CC=C(C)CCCC(C)(C)O` [6-octen-2-ol, 2,6-dimethyl-], in series [1], the refractive index was determined as 1.4408 ± 0.0004. Besides, the mass density in series [2] was 831.8 ± 0.3 kg/m3.
